Data taken from ChEMBL document CHEMBL5724914, “Linking interpersonal differences in gut microbiota composition and drug biotransformation activity” (2024).

Experiments:
[1] = (§1) The drug is tested on Z-027 corresponding to metagenome with ENA study accession number: PRJEB37062 and ENA sample accession number: ERS12561826 for biotransformation under anaerobic condition. The drug concentrations were measured over 9 timepoints collected between 0 and 24 hours of incubation by liquid-chromatography-coupled mass spectrometry (LC–MS); conditions: 2 µM
[2] = (§2) The drug is tested on Z-019 corresponding to rat gut metagenome with ENA study accession number: PRJEB37062 and ENA sample accession number: ERS12561818 for biotransformation under anaerobic condition. The drug concentrations were measured over 9 timepoints collected between 0 and 24 hours of incubation by liquid-chromatography-coupled mass spectrometry (LC–MS); conditions: 2 µM
[3] = as §2, with “on Z-018” for “on Z-019”, “to pig” for “to rat”, “number: ERS12561817” for “number: ERS12561818”; conditions: 2 µM
[4] = as §2, with “on Z-016” for “on Z-019”, “to mouse” for “to rat”, “number: ERS12561815” for “number: ERS12561818”; conditions: 2 µM
[5] = as §1, with “Z-004” for “Z-027”, “ERS12561804” for “ERS12561826”; conditions: 2 µM
[6] = as §2, with “on WLS-310” for “on Z-019”, “to human” for “to rat”, “number: ERS12561785” for “number: ERS12561818”; conditions: 2 µM
[7] = as §2, with “on WLS-220” for “on Z-019”, “to human” for “to rat”, “number: ERS12561769” for “number: ERS12561818”; conditions: 2 µM
[8] = as §2, with “on WLS-082” for “on Z-019”, “to human” for “to rat”, “number: ERS12561751” for “number: ERS12561818”; conditions: 2 µM
[9] = as §2, with “on WLS-077” for “on Z-019”, “to human” for “to rat”, “number: ERS12561750” for “number: ERS12561818”; conditions: 2 µM
[10] = as §2, with “on WLS-052” for “on Z-019”, “to human” for “to rat”, “number: ERS12561747” for “number: ERS12561818”; conditions: 2 µM
[11] = as §2, with “on WLS-039” for “on Z-019”, “to human” for “to rat”, “number: ERS12561746” for “number: ERS12561818”; conditions: 2 µM
[12] = as §2, with “on WLS-007” for “on Z-019”, “to human” for “to rat”, “number: ERS12561742” for “number: ERS12561818”; conditions: 2 µM
[13] = human gut metagenome, 24 h, 2 µM
[14] = human gut metagenome, 24 h, 2 µM; remark: listed apart in the source
[15] = human gut metagenome, 24 h, 2 µM; remark: listed apart in the source
[16] = human gut metagenome, 24 h, 2 µM; remark: listed apart in the source
[17] = human gut metagenome, 24 h, 2 µM; remark: listed apart in the source
[18] = human gut metagenome, 24 h, 2 µM; remark: listed apart in the source
[19] = human gut metagenome, 24 h, 2 µM; remark: listed apart in the source
[20] = human gut metagenome, 24 h, 2 µM; remark: listed apart in the source
Further: call rule not given here.

Bacterial Biotransformation [1]	Bacterial Biotransformation [2]	Bacterial Biotransformation [3]	Bacterial Biotransformation [4]	Bacterial Biotransformation [5]	Bacterial Biotransformation [6]	Bacterial Biotransformation [7]	Bacterial Biotransformation [8]	Bacterial Biotransformation [9]	Bacterial Biotransformation [10]	Bacterial Biotransformation [11]	Bacterial Biotransformation [12]	Bacterial Biotransformation [13]	Bacterial Biotransformation [14]	Bacterial Biotransformation [15]	Bacterial Biotransformation [16]	Bacterial Biotransformation [17]	Bacterial Biotransformation [18]	Bacterial Biotransformation [19]	Bacterial Biotransformation [20]	Structure (SMILES)
Compound metabolized	Compound NOT metabolized	Compound NOT metabolized	Compound metabolized	Compound NOT metabolized	Compound metabolized	Compound metabolized	Compound metabolized	Compound metabolized	Compound metabolized	Compound metabolized	Compound metabolized	Compound metabolized	Compound metabolized	Compound metabolized	Compound metabolized	Compound metabolized	Compound metabolized	Compound metabolized	Compound NOT metabolized	NC(CO)(CO)CO.O=C(c1ccccc1)c1ccc2n1CCC2C(=O)O (stereo not given) [KETOROLAC TROMETHAMINE]
Compound NOT metabolized	Compound metabolized	Compound metabolized	Compound NOT metabolized	Compound NOT metabolized	Compound NOT metabolized	Compound NOT metabolized	Compound NOT metabolized	Compound NOT metabolized	Compound NOT metabolized	Compound NOT metabolized	Compound NOT metabolized	Compound NOT metabolized	Compound NOT metabolized	Compound NOT metabolized	Compound NOT metabolized	Compound NOT metabolized	Compound NOT metabolized	Compound NOT metabolized	Compound metabolized	CC[C@H](C)C(=O)O[C@H]1C[C@@H](C)C=C2C=C[C@H](C)[C@H](CC[C@@H]3C[C@@H](O)CC(=O)O3)[C@H]21 [LOVASTATIN]
Compound NOT metabolized	Compound NOT metabolized	Compound NOT metabolized	Compound NOT metabolized	Compound NOT metabolized	Compound NOT metabolized	Compound NOT metabolized	Compound NOT metabolized	Compound NOT metabolized	Compound NOT metabolized	Compound NOT metabolized	Compound NOT metabolized	Compound NOT metabolized	Compound NOT metabolized	Compound NOT metabolized	Compound NOT metabolized	Compound metabolized	Compound metabolized	Compound metabolized	Compound NOT metabolized	CN1C(=O)CC(C)(c2ccccc2)C1=O (stereo not given) [METHSUXIMIDE]
Compound metabolized	Compound NOT metabolized	Compound NOT metabolized	Compound metabolized	Compound metabolized	Compound metabolized	Compound metabolized	Compound metabolized	Compound metabolized	Compound metabolized	Compound metabolized	Compound metabolized	Compound metabolized	Compound metabolized	Compound metabolized	Compound metabolized	Compound metabolized	Compound metabolized	Compound metabolized	Compound metabolized	COc1ccc2[nH]c([S+]([O-])Cc3ncc(C)c(OC)c3C)nc2c1 (stereo not given) [OMEPRAZOLE]
Compound metabolized	Compound NOT metabolized	Compound metabolized	Compound metabolized	Compound NOT metabolized	Compound metabolized	Compound metabolized	Compound metabolized	Compound metabolized	Compound metabolized	Compound metabolized	Compound metabolized	Compound metabolized	Compound metabolized	Compound metabolized	Compound metabolized	Compound metabolized	Compound metabolized	Compound metabolized	Compound metabolized	O=C(O)CCc1nc(-c2ccccc2)c(-c2ccccc2)o1 [OXAPROZIN]
Compound NOT metabolized	Compound NOT metabolized	Compound metabolized	Compound NOT metabolized	Compound metabolized	Compound metabolized	Compound metabolized	Compound metabolized	Compound metabolized	Compound metabolized	Compound metabolized	Compound metabolized	Compound metabolized	Compound metabolized	Compound metabolized	Compound metabolized	Compound metabolized	Compound metabolized	Compound metabolized	Compound NOT metabolized	CC(C)(C)NC[C@H](O)COc1ccccc1C1CCCC1.CC(C)(C)NC[C@H](O)COc1ccccc1C1CCCC1.O=S(=O)(O)O [PENBUTOLOL SULFATE]
Compound NOT metabolized	Compound NOT metabolized	Compound NOT metabolized	Compound NOT metabolized	Compound NOT metabolized	Compound NOT metabolized	Compound NOT metabolized	Compound NOT metabolized	Compound NOT metabolized	Compound NOT metabolized	Compound NOT metabolized	Compound NOT metabolized	Compound NOT metabolized	Compound NOT metabolized	Compound NOT metabolized	Compound NOT metabolized	Compound NOT metabolized	Compound NOT metabolized	Compound NOT metabolized	Compound NOT metabolized	CCOc1ccc(NC(C)=O)cc1 [PHENACETIN]
Compound metabolized	Compound metabolized	Compound metabolized	Compound metabolized	Compound metabolized	Compound metabolized	Compound metabolized	Compound metabolized	Compound metabolized	Compound metabolized	Compound metabolized	Compound metabolized	Compound metabolized	Compound metabolized	Compound metabolized	Compound metabolized	Compound metabolized	Compound metabolized	Compound metabolized	Compound metabolized	Nc1ccc(/N=N/c2ccccc2)c(N)n1 [PHENAZOPYRIDINE]
